Assay results taken from patent US8846570B2, “Herbicidal compositions comprising 4-amino-3-chloro-5-fluoro-6-(4-chloro-2-fluoro-3-methoxyphenyl)pyridine-2-carboxylic acid or a derivative thereof and microtubule inhibiting herbicides” (Dow AgroSciences LLC, priority 2012, dated 2014).

Key:
Assay in all cases: Postemergence foliar-applied, cereal crops, greenhouse: visual weed control
Format in all cases: in vivo
Conditions in all cases: 21 DAA
[1] = tested on: Amaranthus retroflexus L. (AMARE)
Procedure: (§1) Seeds of the desired test plant species were planted in Sun Gro MetroMix® 306 planting mixture, which typically has a pH of 6.0 to 6.8 and an organic matter content of about 30 percent, in plastic pots with a surface area of 103.2 square centimeters (cm^2). When required to ensure good germination and healthy plants, a fungicide treatment and/or other chemical or physical treatment was applied. The plants were grown for 7-36 days in a greenhouse with an approximate 14 hour photoperiod which was maintained at about 18° C. during the day and about 17° C. during the night. Nutrients and water were added on a regular basis and supplemental lighting was provided with overhead metal halide 1000-Watt lamps as necessary. The plants were employed for testing when they reached the second or third true leaf stage.
(§2) Treatments consisted of the benzyl ester of 4-amino-3-chloro-5-fluoro-6-(4-chloro-2-fluoro-3-methoxy-phenyl)pyridine-2-carboxylic acid (Compound A), formulated as an SC, a second cereal herbicide alone and then both in combination.
(§3) Other herbicidal components were applied on an active ingredient basis and included microtubule-inhibiting herbicides.
(§4) Measured aliquots of benzyl ester of 4-amino-3-chloro-5-fluoro-6-(4-chloro-2-fluoro-3-methoxy-phenyl)pyridine-2-carboxylic acid (Compound A) were placed in 25 milliliter (mL) glass vials and diluted in a volume of 1.25% (v/v) Agri-Dex® crop oil concentrate to obtain stock solutions. Compound requirements are based upon a 12 mL application volume at a rate of 187 liters per hectare (L/ha). Spray solutions of the second cereal herbicide and experimental compound mixtures were prepared by adding the stock solutions to the appropriate amount of dilution solution to form 12 mL spray solution with active ingredients in two- and three-way combinations. Formulated compounds were applied to the plant material with an overhead Mandel track sprayer equipped with an 8002E nozzle calibrated to deliver 187 L/ha over an application area of 0.503 square meters (m^2) at a spray height of 18 inches (46 cm) above average plant canopy. Control plants were sprayed in the same manner with the solvent blank.
(§5) The treated plants and control plants were placed in a greenhouse as described above and watered by sub-irrigation to prevent wash-off of the test compounds. After 20-22 days, the condition of the test plants as compared with that of the control plants was determined visually and scored on a scale of 0 to 100 percent where 0 corresponds to no injury and 100 corresponds to complete kill.
(§6) Colby's equation was used to determine the herbicidal effects expected from the mixtures (Colby, S. R. 1967. Calculation of the synergistic and antagonistic response of herbicide combinations. Weeds 15:20-22.).
(§7) The following equation was used to calculate the expected activity of mixtures containing two active ingredients, A and B: Expected=A+B−(A×B/100)

[2] = tested on: Chenopodium album L. (CHEAL)
Procedure: as §1, §2, §3, §4, §5, §6, §7

[3] = tested on: Cirsium arvense (L.) Scop. (CIRAR)
Procedure: as §1, §2, §3, §4, §5, §6, §7

[4] = tested on: Kochia scoparia (L.) Schrad. (KCHSC)
Procedure: as §1, §2, §3, §4, §5, §6, §7

[5] = tested on: Lamium purpureum L. (LAMPU)
Procedure: as §1, §2, §3, §4, §5, §6, §7

[6] = tested on: Papaver rhoeas L. (PAPRH)
Procedure: as §1, §2, §3, §4, §5, §6, §7

[7] = tested on: Sinapis arvensis L. (SINAR)
Procedure: as §1, §2, §3, §4, §5, §6, §7

[8] = tested on: Stellaria media (L.) Vill. (STEME)
Procedure: as §1, §2, §3, §4, §5, §6, §7

COc1c(Cl)ccc(-c2nc(C(=O)OCc3ccccc3)c(Cl)c(N)c2F)c1F [Compound A Benzyl Ester, benzyl ester of 4-amino-3-chloro-5-fluoro-6-(4-chloro-2-fluoro-3-methoxy-phenyl)pyridine-2-carboxylic acid]
Visual Weed Control (%) Obs ([1]; 2.5 g ai/ha): 20% | Visual Weed Control (%) Obs ([1]; 5 g ai/ha): 38% | Visual Weed Control (%) Obs ([2]; 2.5 g ai/ha): 50% | Visual Weed Control (%) Obs ([2]; 5 g ai/ha): 58% | Visual Weed Control (%) Obs ([3]; 2.5 g ai/ha): 48% | Visual Weed Control (%) Obs ([3]; 5 g ai/ha): 39% | Visual Weed Control (%) Obs ([3]; 10 g ai/ha): 60% | Visual Weed Control (%) Obs ([4]; 2.5 g ai/ha): 20% | Visual Weed Control (%) Obs ([4]; 5 g ai/ha): 41% | Visual Weed Control (%) Obs ([4]; 10 g ai/ha): 62% | Visual Weed Control (%) Obs ([5]; 2.5 g ai/ha): 80% | Visual Weed Control (%) Obs ([5]; 5 g ai/ha): 86% | Visual Weed Control (%) Obs ([5]; 10 g ai/ha): 94% | Visual Weed Control (%) Obs ([6]; 2.5 g ai/ha): 48% | Visual Weed Control (%) Obs ([6]; 5 g ai/ha): 28% | Visual Weed Control (%) Obs ([6]; 10 g ai/ha): 35% | Visual Weed Control (%) Obs ([7]; 2.5 g ai/ha): 70% | Visual Weed Control (%) Obs ([7]; 5 g ai/ha): 73% | Visual Weed Control (%) Obs ([8]; 2.5 g ai/ha): 25% | Visual Weed Control (%) Obs ([8]; 5 g ai/ha): 25% | Visual Weed Control (%) Obs ([8]; 10 g ai/ha): 27%

CCC(CC)Nc1c([N+](=O)[O-])cc(C)c(C)c1[N+](=O)[O-] [Pendimethalin, N-(1-ethylpropyl)-3,4-dimethyl-2,6-dinitrobenzenamine, reference compound]
Visual Weed Control (%) Obs ([1]; 150 g ai/ha): 3% | Visual Weed Control (%) Obs ([1]; 300 g ai/ha): 5% | Visual Weed Control (%) Obs ([2]; 150 g ai/ha): 0% | Visual Weed Control (%) Obs ([2]; 300 g ai/ha): 0% | Visual Weed Control (%) Obs ([3]; 150 g ai/ha): 10% | Visual Weed Control (%) Obs ([3]; 300 g ai/ha): 10% | Visual Weed Control (%) Obs ([3]; 600 g ai/ha): 10% | Visual Weed Control (%) Obs ([4]; 150 g ai/ha): 10% | Visual Weed Control (%) Obs ([4]; 300 g ai/ha): 10% | Visual Weed Control (%) Obs ([4]; 600 g ai/ha): 57% | Visual Weed Control (%) Obs ([5]; 150 g ai/ha): 0% | Visual Weed Control (%) Obs ([5]; 300 g ai/ha): 25% | Visual Weed Control (%) Obs ([5]; 600 g ai/ha): 53% | Visual Weed Control (%) Obs ([6]; 150 g ai/ha): 18% | Visual Weed Control (%) Obs ([6]; 300 g ai/ha): 38% | Visual Weed Control (%) Obs ([6]; 600 g ai/ha): 75% | Visual Weed Control (%) Obs ([7]; 150 g ai/ha): 3% | Visual Weed Control (%) Obs ([7]; 300 g ai/ha): 5% | Visual Weed Control (%) Obs ([8]; 150 g ai/ha): 3% | Visual Weed Control (%) Obs ([8]; 300 g ai/ha): 5% | Visual Weed Control (%) Obs ([8]; 600 g ai/ha): 17%
